Measurements: patent US9758529B2, “Fused dihydro-4H-pyrazolo[5,1-C][1,4]oxazinyl compounds and analogs for treating CNS disorders” (Sunovion Pharmaceuticals Inc., priority 2015, dated 2017)
Counter-ions that a name gives are not always drawn.

tested on: mice; test: Neuropharmacological Assay (SmartCube); type: in vivo; settings: i.p. 15 min before behavioral test; 3 doses, most efficacious dose(s) presented

| SMILES | AD: ADHD (probability of class match) | AG: analgesic (probability of class match) | AX: anxiolytic (probability of class match) | CE: cognitive enhancer (probability of class match) | DP: anti-depressant (probability of class match) | HA: hallucinogen (probability of class match) | MS: mood stabilizer (probability of class match) | PS: anti-psychotic (probability of class match) | SD: sedative hypnotic (probability of class match) | UN: uncharacterized CNS activity (probability of class match) |
| --- | --- | --- | --- | --- | --- | --- | --- | --- | --- | --- |
| CC1(CN)OCCn2nc3ccccc3c21.Cl (stereo not drawn) [Compound 39, (1-methyl-3,4-dihydro-1H-[1,4]oxazino[4,3-b]indazol-1-yl)methanaminium chloride] | + (LOQ≦ + <5%) | + (LOQ≦ + <5%) | ++ (5%≦ ++ <25%) | + (LOQ≦ + <5%) | ++ (5%≦ ++ <25%) | + (LOQ≦ + <5%) | + (LOQ≦ + <5%) | + (LOQ≦ + <5%) | + (LOQ≦ + <5%) | + (LOQ≦ + <5%) |
| CNCC1OCCCn2nc3ccccc3c21.Cl (stereo not drawn) [Compound 51, 1-(4,5-dihydro-1H,3H-[1,4]oxazepino[4,3-b]indazol-1-yl)-N-methylmethanaminium chloride] | ++ (5%≦ ++ <25%) | + (LOQ≦ + <5%) | ++ (5%≦ ++ <25%) | + (LOQ≦ + <5%) | +++ (25%≦ +++ <50%) | + (LOQ≦ + <5%) | + (LOQ≦ + <5%) | + (LOQ≦ + <5%) | + (LOQ≦ + <5%) | + (LOQ≦ + <5%) |
| CNC[C@H]1OCCn2nc3ccccc3c21.Cl [Compound 2, (R)-(3,4-dihydro-1H-[1,4]oxazino[4,3-b]indazol-1-yl)-N-methylmethanaminium chloride] | ++ (5%≦ ++ <25%) | + (LOQ≦ + <5%) | ++ (5%≦ ++ <25%) | + (LOQ≦ + <5%) | ++++ (50%≦ ++++) | ++++ (50%≦ ++++) | + (LOQ≦ + <5%) | + (LOQ≦ + <5%) | + (LOQ≦ + <5%) | + (LOQ≦ + <5%) |
| C[C@@H](N)[C@H]1OCCn2nc3ccccc3c21.Cl (relative stereo) [Compound 30, (+/−)-rel-(R)-1-((R)-3,4-dihydro-1H-[1,4]oxazino[4,3-b]indazol-1-yl) ethanaminium chloride] | ++ (5%≦ ++ <25%) | ++ (5%≦ ++ <25%) | +++ (25%≦ +++ <50%) | + (LOQ≦ + <5%) | ++ (5%≦ ++ <25%) | ++ (5%≦ ++ <25%) | + (LOQ≦ + <5%) | + (LOQ≦ + <5%) | + (LOQ≦ + <5%) | + (LOQ≦ + <5%) |
| CNCC1OCCn2nc3ccsc3c21.Cl (stereo not drawn) [Compound 58, 1-(6,7-dihydro-9H-thieno[3′,2′:3,4]pyrazolo[5,1-c][1,4]oxazin-9-yl)-N-methylmethanaminium chloride] | ++ (5%≦ ++ <25%) | + (LOQ≦ + <5%) | ++ (5%≦ ++ <25%) | + (LOQ≦ + <5%) | ++++ (50%≦ ++++) | ++ (5%≦ ++ <25%) | + (LOQ≦ + <5%) | + (LOQ≦ + <5%) | ++ (5%≦ ++ <25%) | + (LOQ≦ + <5%) |
| CN[C@H](C)[C@H]1OCCn2nc3ccccc3c21.Cl (relative stereo) [Compound 31, (+/−)-rel-(R)-1-((R)-3,4-dihydro-1H-[1,4]oxazino[4,3-b]indazol-1-yl)-N-methylethanaminium chloride] | + (LOQ≦ + <5%) | ++ (5%≦ ++ <25%) | +++ (25%≦ +++ <50%) | ++ (5%≦ ++ <25%) | ++ (5%≦ ++ <25%) | + (LOQ≦ + <5%) | + (LOQ≦ + <5%) | ++ (5%≦ ++ <25%) | + (LOQ≦ + <5%) | +++ (25%≦ +++ <50%) |
| CN(C)CC1OCCn2nc3ccsc3c21.Cl (stereo not drawn) [Compound 59, 1-(6,7-dihydro-9H-thieno[3′,2′:3,4]pyrazolo[5,1-c][1,4]oxazin-9-yl)-N,N-dimethylmethanaminium chloride] | + (LOQ≦ + <5%) | ++ (5%≦ ++ <25%) | ++ (5%≦ ++ <25%) | ++ (5%≦ ++ <25%) | ++ (5%≦ ++ <25%) | + (LOQ≦ + <5%) | + (LOQ≦ + <5%) | ++ (5%≦ ++ <25%) | + (LOQ≦ + <5%) | +++ (25%≦ +++ <50%) |
| CN[C@@H](C)[C@H]1OCCn2nc3ccccc3c21 (relative stereo) [Compound 34, (+/−)-rel-(R)-1-((S)-3,4-dihydro-1H-[1,4]oxazino[4,3-b]indazol-1-yl)-N-methylethanaminium chloride] | + (LOQ≦ + <5%) | + (LOQ≦ + <5%) | ++ (5%≦ ++ <25%) | + (LOQ≦ + <5%) | + (LOQ≦ + <5%) | + (LOQ≦ + <5%) | + (LOQ≦ + <5%) | + (LOQ≦ + <5%) | + (LOQ≦ + <5%) | + (LOQ≦ + <5%) |
| CN1CCO[C@@H]([C@H]2OCCn3nc4ccccc4c32)C1 [Compound 26, (2R)-2-((S)-3,4-dihydro-1H-[1,4]oxazino[4,3-b]indazol-1-yl)-4-methylmorpholin-4-ium chloride] | + (LOQ≦ + <5%) | ++ (5%≦ ++ <25%) | + (LOQ≦ + <5%) | + (LOQ≦ + <5%) | ++ (5%≦ ++ <25%) | + (LOQ≦ + <5%) | + (LOQ≦ + <5%) | + (LOQ≦ + <5%) | + (LOQ≦ + <5%) | + (LOQ≦ + <5%) |
| c1ccc2c3n(nc2c1)CCOC3CNC1CC1 (stereo not drawn) [Compound 21, N-((3,4-dihydro-1H-[1,4]oxazino[4,3-b]indazol-1-yl)methyl)cyclopropan amine hydrogen chloride salt] | + (LOQ≦ + <5%) | ++ (5%≦ ++ <25%) | ++ (5%≦ ++ <25%) | + (LOQ≦ + <5%) | ++ (5%≦ ++ <25%) | + (LOQ≦ + <5%) | + (LOQ≦ + <5%) | ++ (5%≦ ++ <25%) | + (LOQ≦ + <5%) | + (LOQ≦ + <5%) |
| CN1CCOC[C@H]1[C@H]1OCCn2nc3ccccc3c21 (racemic) [Compound 47, (+/−)-(3S,4R)-3-((R)-3,4-dihydro-1H-[1,4]oxazino[4,3-b]indazol-1-yl)-4-methylmorpholin-4-ium chloride] | + (LOQ≦ + <5%) | ++ (5%≦ ++ <25%) | ++ (5%≦ ++ <25%) | + (LOQ≦ + <5%) | + (LOQ≦ + <5%) | + (LOQ≦ + <5%) | + (LOQ≦ + <5%) | + (LOQ≦ + <5%) | + (LOQ≦ + <5%) | + (LOQ≦ + <5%) |
| CCNCC1OCCn2nc3ccccc3c21.Cl (stereo not drawn) [Compound 18, N-((3,4-dihydro-1H-[1,4]oxazino[4,3-b]indazol-1-yl)methyl) ethanamine hydrogen chloride salt] | + (LOQ≦ + <5%) | ++ (5%≦ ++ <25%) | ++ (5%≦ ++ <25%) | ++ (5%≦ ++ <25%) | + (LOQ≦ + <5%) | + (LOQ≦ + <5%) | + (LOQ≦ + <5%) | ++ (5%≦ ++ <25%) | + (LOQ≦ + <5%) | + (LOQ≦ + <5%) |

same assay, conditions: i.p. 15 min before behavioral test; 3 doses, most efficacious dose(s) presented

| SMILES | XG: anxiogenic (probability of class match) |
| --- | --- |
| CC1(CN)OCCn2nc3ccccc3c21.Cl (stereo not drawn) [Compound 39, (1-methyl-3,4-dihydro-1H-[1,4]oxazino[4,3-b]indazol-1-yl)methanaminium chloride] | + (LOQ≦ + <5%) |
| CNCC1OCCCn2nc3ccccc3c21.Cl (stereo not drawn) [Compound 51, 1-(4,5-dihydro-1H,3H-[1,4]oxazepino[4,3-b]indazol-1-yl)-N-methylmethanaminium chloride] | + (LOQ≦ + <5%) |
| CNC[C@H]1OCCn2nc3ccccc3c21.Cl [Compound 2, (R)-(3,4-dihydro-1H-[1,4]oxazino[4,3-b]indazol-1-yl)-N-methylmethanaminium chloride] | + (LOQ≦ + <5%) |
| C[C@@H](N)[C@H]1OCCn2nc3ccccc3c21.Cl (relative stereo) [Compound 30, (+/−)-rel-(R)-1-((R)-3,4-dihydro-1H-[1,4]oxazino[4,3-b]indazol-1-yl) ethanaminium chloride] | + (LOQ≦ + <5%) |
| CNCC1OCCn2nc3ccsc3c21.Cl (stereo not drawn) [Compound 58, 1-(6,7-dihydro-9H-thieno[3′,2′:3,4]pyrazolo[5,1-c][1,4]oxazin-9-yl)-N-methylmethanaminium chloride] | + (LOQ≦ + <5%) |
| CN[C@H](C)[C@H]1OCCn2nc3ccccc3c21.Cl (relative stereo) [Compound 31, (+/−)-rel-(R)-1-((R)-3,4-dihydro-1H-[1,4]oxazino[4,3-b]indazol-1-yl)-N-methylethanaminium chloride] | + (LOQ≦ + <5%) |
| CN(C)CC1OCCn2nc3ccsc3c21.Cl (stereo not drawn) [Compound 59, 1-(6,7-dihydro-9H-thieno[3′,2′:3,4]pyrazolo[5,1-c][1,4]oxazin-9-yl)-N,N-dimethylmethanaminium chloride] | + (LOQ≦ + <5%) |
| CN[C@@H](C)[C@H]1OCCn2nc3ccccc3c21 (relative stereo) [Compound 34, (+/−)-rel-(R)-1-((S)-3,4-dihydro-1H-[1,4]oxazino[4,3-b]indazol-1-yl)-N-methylethanaminium chloride] | + (LOQ≦ + <5%) |
| CN1CCO[C@@H]([C@H]2OCCn3nc4ccccc4c32)C1 [Compound 26, (2R)-2-((S)-3,4-dihydro-1H-[1,4]oxazino[4,3-b]indazol-1-yl)-4-methylmorpholin-4-ium chloride] | + (LOQ≦ + <5%) |
| c1ccc2c3n(nc2c1)CCOC3CNC1CC1 (stereo not drawn) [Compound 21, N-((3,4-dihydro-1H-[1,4]oxazino[4,3-b]indazol-1-yl)methyl)cyclopropan amine hydrogen chloride salt] | + (LOQ≦ + <5%) |
| CN1CCOC[C@H]1[C@H]1OCCn2nc3ccccc3c21 (racemic) [Compound 47, (+/−)-(3S,4R)-3-((R)-3,4-dihydro-1H-[1,4]oxazino[4,3-b]indazol-1-yl)-4-methylmorpholin-4-ium chloride] | + (LOQ≦ + <5%) |
| CCNCC1OCCn2nc3ccccc3c21.Cl (stereo not drawn) [Compound 18, N-((3,4-dihydro-1H-[1,4]oxazino[4,3-b]indazol-1-yl)methyl) ethanamine hydrogen chloride salt] | + (LOQ≦ + <5%) |
